Experiments:
Type in all cases: tissue-based
[1] = biological target: T1, Mitogen-activated protein kinase 14 (Homo sapiens, UniProt Q16539); assay: Inhibition of p38 alpha MAPK in human whole blood assessed as phosphorylation of ATF-2 by immunosorbent non-radioactive enzyme assay
[2] = biological target: T1, Mitogen-activated protein kinase 14; assay: Inhibition of p38 alpha MAPK in human whole blood assessed as suppression of LPS-induced TNF-alpha release by immunosorbent non-radioactive enzyme assay
[3] = biological target: T1, Mitogen-activated protein kinase 14; assay: Inhibition of p38 alpha MAPK in human whole blood assessed as phosphorylation of ATF-2 by immunosorbent non-radioactive enzyme assay relative to SB203580
[4] = biological target: T1, Mitogen-activated protein kinase 14; assay: Inhibition of p38 alpha MAPK in human whole blood assessed as suppression of LPS-induced TNF-alpha release by immunosorbent non-radioactive enzyme assay relative to SB203580

T1 sequence (Q16539 whole entry): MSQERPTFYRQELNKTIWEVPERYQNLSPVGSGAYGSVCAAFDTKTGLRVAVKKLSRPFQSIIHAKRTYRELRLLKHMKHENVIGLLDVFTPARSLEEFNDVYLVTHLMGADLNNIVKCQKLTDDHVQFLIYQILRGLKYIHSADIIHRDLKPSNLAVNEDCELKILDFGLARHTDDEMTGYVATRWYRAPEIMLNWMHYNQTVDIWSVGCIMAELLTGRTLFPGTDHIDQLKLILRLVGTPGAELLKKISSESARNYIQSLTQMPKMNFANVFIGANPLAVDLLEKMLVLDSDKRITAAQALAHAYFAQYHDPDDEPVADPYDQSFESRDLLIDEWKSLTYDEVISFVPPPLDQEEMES

IC50 [1] [nM]	IC50 [2] [nM]	Ratio IC50 [3]	Ratio IC50 [4]	SMILES
1030		0.035		CC(=O)Nc1cc(-c2c(-c3ccc(F)cc3)nc([S@@+](C)[O-])n2C)ccn1
61	1340	1.18	0.92	CC(C)[C@@H](C)Nc1cc(-c2[nH]c([S+](C)[O-])nc2-c2ccc(F)cc2)ccn1 (mixture of isomers)
207		0.28		C[C@@H](Nc1cc(-c2[nH]c([S+](C)[O-])nc2-c2ccc(F)cc2)ccn1)c1ccccc1 (mixture of isomers)
69	5550	1.16	0.31	C[S+]([O-])c1nc(-c2ccc(F)cc2)c(-c2ccnc(NC(=O)Cc3ccc(F)cc3)c2)[nH]1 (racemic)
	2980			CSc1nc(-c2ccnc(NC(=O)Cc3ccc(F)cc3)c2)c(-c2ccc(F)cc2)[nH]1
		3.44	0.66	CSc1nc(-c2ccc(F)cc2)c(-c2ccnc(NC(=O)Cc3ccc(F)cc3)c2)[nH]1
36	750			CC(C)[C@@H](C)Nc1cc(-c2nc([S@+](C)[O-])[nH]c2-c2ccc(F)cc2)ccn1
		9.25	4.24	CC(C)Nc1cc(-c2[nH]c([S@+]([O-])C(C)C)nc2-c2ccc(F)cc2)ccn1
12	650			CC(C)Sc1nc(-c2ccnc(NC3CCCCC3)c2)c(-c2ccc(F)cc2)[nH]1
27	250	2.15	6.8	CC(C)[C@H](C)Nc1cc(-c2[nH]c([S@+](C)[O-])nc2-c2ccc(F)cc2)ccn1
		6.17	3.13	CC(C)Nc1cc(-c2[nH]c([S@@+]([O-])C(C)C)nc2-c2ccc(F)cc2)ccn1
34	620	1.68	1.98	C[S+]([O-])c1nc(-c2ccc(F)cc2)c(-c2ccnc(NC3CCCCC3)c2)[nH]1 (racemic)
	180			CSc1nc(-c2ccnc(NC3CCOCC3)c2)c(-c2ccc(F)cc2)[nH]1
168				C[C@@H](Nc1cc(-c2nc([S@@+](C)[O-])[nH]c2-c2ccc(F)cc2)ccn1)c1ccccc1
3	250	5	4.92	CC(C)Nc1cc(-c2[nH]c([S+]([O-])C(C)C)nc2-c2ccc(F)cc2)ccn1 (racemic)
		0.62	0.28	C[C@H](Nc1cc(-c2[nH]c([S@+](C)[O-])nc2-c2ccc(F)cc2)ccn1)c1ccccc1
25	10000	1.12	0.16	C[C@H](Nc1cc(-c2[nH]c([S@@+](C)[O-])nc2-c2ccc(F)cc2)ccn1)c1ccccc1
		1.38	2.05	C[S@+]([O-])c1nc(-c2ccc(F)cc2)c(-c2ccnc(NC3CCOCC3)c2)[nH]1
		9.8	10.7	CSc1nc(-c2ccc(F)cc2)c(-c2ccnc(NC3CCOCC3)c2)[nH]1
4	120	3.75	19.4	CC(C)Nc1cc(-c2[nH]c(SC(C)C)nc2-c2ccc(F)cc2)ccn1
50	590			C[S@+]([O-])c1nc(-c2ccnc(NC3CCCCC3)c2)c(-c2ccc(F)cc2)[nH]1
161				CC(=O)Nc1cc(-c2nc([S@@+](C)[O-])[nH]c2-c2ccc(F)cc2)ccn1
		0.49		C[C@@H](Nc1cc(-c2[nH]c([S@@+](C)[O-])nc2-c2ccc(F)cc2)ccn1)c1ccccc1
		1.62	5.62	CC(C)[S@+]([O-])c1nc(-c2ccc(F)cc2)c(-c2ccnc(NC3CCCCC3)c2)[nH]1
26	50	1.81	31.2	CSc1nc(-c2ccc(F)cc2)c(-c2ccnc(N[C@@H](C)C(C)C)c2)[nH]1
		0.55		CC(=O)Nc1cc(-c2[nH]c([S@@+](C)[O-])nc2-c2ccc(F)cc2)ccn1
2	130	18	12	CSc1nc(-c2ccc(F)cc2)c(-c2ccnc(NC(C)C)c2)[nH]1
		3.05	8.5	CC(C)[C@H](C)Nc1cc(-c2[nH]c([S@@+](C)[O-])nc2-c2ccc(F)cc2)ccn1
		2.89	7.24	CSc1nc(-c2ccc(F)cc2)c(-c2ccnc(NC3CCCCC3)c2)[nH]1
29	550	2.55	3.09	C[S@@+]([O-])c1nc(-c2ccc(F)cc2)c(-c2ccnc(NC3CCCCC3)c2)[nH]1

The remaining lines, values behind:

SMILES	IC50 [1] [nM]	IC50 [2] [nM]	Ratio IC50 [3]	Ratio IC50 [4]
C[C@H](Nc1cc(-c2nc([S@+](C)[O-])[nH]c2-c2ccc(F)cc2)ccn1)c1ccccc1	45	5520		
CC(C)[C@H](C)Nc1cc(-c2[nH]c([S+](C)[O-])nc2-c2ccc(F)cc2)ccn1 (mixture of isomers)	17	150	3.41	10.4
CSc1nc(-c2ccc(F)cc2)c(-c2ccnc(N[C@H](C)C(C)C)c2)[nH]1	40	180	1.8	8.67
CC(C)Nc1cc(-c2[nH]c([S+](C)[O-])nc2-c2ccc(F)cc2)ccn1 (racemic)	2	470	7.5	2.62
C[S@+]([O-])c1nc(-c2ccc(F)cc2)c(-c2ccnc(NC3CCCCC3)c2)[nH]1			1.48	2.08
CC(C)Sc1nc(-c2ccc(F)cc2)c(-c2ccnc(NC3CCCCC3)c2)[nH]1			4.17	2.86
CC(C)Nc1cc(-c2[nH]c([S@@+](C)[O-])nc2-c2ccc(F)cc2)ccn1			5.08	3.62
CC(C)Nc1cc(-c2nc([S@+]([O-])C(C)C)[nH]c2-c2ccc(F)cc2)ccn1	4	450		
C[S@+]([O-])c1nc(-c2ccc(F)cc2)c(-c2ccnc(NC(=O)Cc3ccc(F)cc3)c2)[nH]1			0.55	0.23
C[C@@H](Nc1cc(-c2[nH]c([S@+](C)[O-])nc2-c2ccc(F)cc2)ccn1)c1ccccc1	200		0.42	
CC(C)[C@H](C)Nc1cc(-c2nc([S@@+](C)[O-])[nH]c2-c2ccc(F)cc2)ccn1	19	200		
CC(C)Nc1cc(-c2nc([S@@+](C)[O-])[nH]c2-c2ccc(F)cc2)ccn1	12	530		
CC(=O)Nc1cc(-c2[nH]c([S+](C)[O-])nc2-c2ccc(F)cc2)ccn1 (racemic)	403		0.1	
C[S@@+]([O-])c1nc(-c2ccc(F)cc2)c(-c2ccnc(NC3CCOCC3)c2)[nH]1			4.45	2.15
CSc1nc(-c2ccnc(NC3CCCCC3)c2)c(-c2ccc(F)cc2)[nH]1	27	170		
C[S+]([O-])c1nc(-c2ccc(F)cc2)c(-c2ccnc(NC3CCOCC3)c2)[nH]1 (racemic)	12	340	4.67	3.62
CC(=O)Nc1cc(-c2c(-c3ccc(F)cc3)nc([S+](C)[O-])n2C)ccn1 (racemic)	1070		0.042	

SMILES	IC50 [1] [nM]	IC50 [2] [nM]	Ratio IC50 [3]	Ratio IC50 [4]
CC(C)[C@@H](C)Nc1cc(-c2[nH]c([S@+](C)[O-])nc2-c2ccc(F)cc2)ccn1			1.44	2.07
CC(=O)Nc1cc(-c2[nH]c([S@+](C)[O-])nc2-c2ccc(F)cc2)ccn1	197		0.45	
C[S@+]([O-])c1nc(-c2ccnc(NC3CCOCC3)c2)c(-c2ccc(F)cc2)[nH]1	34	830		
CC(C)[C@@H](C)Nc1cc(-c2[nH]c([S@@+](C)[O-])nc2-c2ccc(F)cc2)ccn1	31	900	2.32	1.72
CSc1nc(-c2ccc(F)cc2)c(-c2ccnc(NC(C)=O)c2)[nH]1	37		2.11	
CC(C)[S@@+]([O-])c1nc(-c2ccc(F)cc2)c(-c2ccnc(NC3CCCCC3)c2)[nH]1	11	250	3.09	7.64
C[C@H](Nc1cc(-c2[nH]c([S+](C)[O-])nc2-c2ccc(F)cc2)ccn1)c1ccccc1 (mixture of isomers)	95	6280	0.53	0.25
CC(C)Nc1cc(-c2[nH]c([S@+](C)[O-])nc2-c2ccc(F)cc2)ccn1	24	840	2.54	2.29
CC(C)[S@+]([O-])c1nc(-c2ccnc(NC3CCCCC3)c2)c(-c2ccc(F)cc2)[nH]1	21	340		
CSc1nc(-c2ccc(F)cc2)c(-c2ccnc(NC(C)=O)c2)n1C	188		0.28	
C[S@@+]([O-])c1nc(-c2ccnc(NC3CCOCC3)c2)c(-c2ccc(F)cc2)[nH]1	11	790		
CC(C)[S+]([O-])c1nc(-c2ccc(F)cc2)c(-c2ccnc(NC3CCCCC3)c2)[nH]1 (racemic)	18	1080	2.17	1.72
C[S@@+]([O-])c1nc(-c2ccc(F)cc2)c(-c2ccnc(NC(=O)Cc3ccc(F)cc3)c2)[nH]1	77	6410	1	0.27
C[S@+]([O-])c1nc(-c2ccnc(NC(=O)Cc3ccc(F)cc3)c2)c(-c2ccc(F)cc2)[nH]1	141	7530		
CC(=O)Nc1cc(-c2c(-c3ccc(F)cc3)nc([S@+](C)[O-])n2C)ccn1	1260		0.028	
CC(C)Nc1cc(-c2nc([S@@+]([O-])C(C)C)[nH]c2-c2ccc(F)cc2)ccn1	6	610		

Reference: ChEMBL document CHEMBL1773061, “Chiral sulfoxides as metabolites of 2-thioimidazole-based p38α mitogen-activated protein kinase inhibitors: enantioselective synthesis and biological evaluation” (J Med Chem, 2011)
